Measurements published in patent US20190201419A1, “COMPOUND AND METHOD FOR THE TREATMENT AND DIAGNOSIS OF NEURODEGENERATIVE CONDITIONS” (Swansea University, priority 2013, published 2019).

Tests used:
[1] = tested on: zebrafish embryos; test: Survival of transgenic zebrafish embryos on compound exposure; type: in vivo
Protocol: (§1) Zebrafish Strain and Maintenance Zebrafish were raised on a 14/10 h day/night cycle and were kept at 28.5 ° C. Islet-1:GFP transgenic embryos were obtained via natural spawning and staged in hours or days post fertilization (hpf and dpt) according to Kimmel et al). Embryos older than 24 hpf were treated with 0.03% phenylthiourea (PTU) to inhibit pigmentation. MO injections were performed using splice site specific zebrafish lxi MO MO injected embryos were immediately dechorionated and transferred to a 96 well plate and exposed to dimethyl sulfoxide (DMSO) treated or ligand treated medium. Compound Exposure. Islet-1:GFP embryos were collected by natural mating and immediately (at 1 cell stage) dechorionated and transferred to a 96 well plate. Each of the compounds tested were obtained as 10 mM stock and diluted in embryo medium to a final concentration of 10 μM, and 200 μL was added to each well. DMSO or propan-2-ol treated embryo medium was taken as control. Ligand solutions were replaced every 12 h with fresh ligand solution prepared in PTU treated embryo medium. Embryos were collected at 48 hpf, fixed for 4 h at room temperature with 4% paraformaldehyde and then washed and kept in PBST. Immunocytochemistry was performed using an anti-GFP antibody and fluorescence was viewed and photographed using a Zeiss Axioplan compound microscope and a Zeiss Axiocam digital camera.

[2] = tested on: active caspase 3+ cells; test: Active caspase 3+ cells in mouse E11.5 brain primary cultures; type: cell-based; details: for Number of active caspase-3+ cells: wt cultures, 3β,7α-diHCA, 3βH,7O-CA, 25-HC at 10 μM, toxic acids at low concentrations
Protocol: (§2) Primary Brain Cultures. Brains from E11.5 mice were manually dissected, plated on poly-D-lysine (150,000 cells/cm^2) and grown in serum-free N2 media consisting of 1:1 mixture of F12 and DMEM with 10 ng/mL insulin, 100 μg/mL apo-transferrin, 100 μM putrescine, 20 nM progesterone, 30 nM selenium, 6 mg/mL glucose, and 1 mg/mL BSA. Cells were treated for 3 days in vitro (DIV) with the compounds of interest, fixed with 4% PFA and processed for staining using appropriate antibodies.
(§3) Antibodies and Detection Procedures. Cells were fixed in 4% PFA, washed in PBS and blocked in 5% normal goat serum/PBS for 1 h at room temperature. Primary antibodies were diluted in PBS (pH 7.4), 0.3% Triton X-100, 1% BSA and incubations were carried out overnight at +4° C. or at room temperature for 2 h. The antibodies used were anti-:BrdU (1:400; Abeam), Islet-1 (1:100: Developmental Studies Hybridoma Bank), cleaved caspase-3 (Aspt 75) (1:100; Cell Signaling Technology), tyrosine hydroxylase (TH; 1:1000; Pel-Freeze) GABA (1:1,000; Sigma), Bm3a (1:250; Millipore), Nkx6.1 (1:200; Novus Biologicals), choline acetyltransferase (ChAT; 1:500; Millipore) and appropriate secondary antibodies (Jackson ImmunoResearch or Alexa). Cells positive for the corresponding marker were counted directly at the microscope at a magnification of 20×. Cells were counted in every well, in eight consecutive fields (going from one side of the well to the other, passing through the center), in three different wells per experiment and in three different experiments per condition. Random pictures of the wells were taken for every condition to document the result, and representative pictures were subsequently selected to represent the quantitative data. Photos were acquired with a Zeiss Axioplan microscope and a Hamamatsu camera C4742-95 using the Openlab software.

[3] = tested on: Abca1, Abcg1 and Srebf1 transcript levels; test: Quantitative PCR of Lxr target genes in SN4741 cells; type: cell-based, mouse; details: 3 h
Protocol: (§4) Quantitative PCR, Total RNA was extracted from SN4741. cells and zebrafish treated with the compounds of interest using the RNeasy Mini Kit (Qiagen), 1 μg was treated with RQ1 RNase-free DNase (Promega) and reverse transcribed using SuperScript II Reverse Transcriptase (invitrogen) and random primers (invitrogen) (RT+reaction). Parallel reactions without reverse transcriptase enzyme were done as a control (RT−reaction), and Sybergreen real-time quantitative PCR assays were performed. Expression levels were obtained by normalization with the Value of the housekeeping gene encoding actin obtained for every sample in parallel assays.

[4] = molecular target: T1, Lxrβ (Homo sapiens, UniProt P55055); test: Lxrβ luciferase reporter assay in SN4741 neural cells; type: cell-based, mouse; details: for Lxrβ activation, luciferase activity (fold activation): SN4741 cells, 10 μM, 24 h
T1 construct: expressed in transfected cells; host or cells: SN4741 mouse neuronal cell line
T1 sequence (P55055 1-460): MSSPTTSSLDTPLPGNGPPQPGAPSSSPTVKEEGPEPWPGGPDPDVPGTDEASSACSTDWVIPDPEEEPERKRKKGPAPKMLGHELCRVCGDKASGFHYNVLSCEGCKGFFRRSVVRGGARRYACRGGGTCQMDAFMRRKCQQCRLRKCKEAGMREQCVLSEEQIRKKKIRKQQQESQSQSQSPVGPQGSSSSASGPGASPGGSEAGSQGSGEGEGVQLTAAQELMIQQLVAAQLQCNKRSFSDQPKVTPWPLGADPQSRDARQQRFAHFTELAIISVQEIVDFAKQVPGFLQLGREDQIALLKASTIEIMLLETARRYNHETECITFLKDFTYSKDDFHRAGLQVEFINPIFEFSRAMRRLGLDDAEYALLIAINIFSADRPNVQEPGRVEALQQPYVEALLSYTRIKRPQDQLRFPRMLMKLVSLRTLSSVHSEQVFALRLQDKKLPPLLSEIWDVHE
Excerpt: (§5) Luciferase Reporter Assay.

[5] = molecular target: T2, Lxrα (Homo sapiens, UniProt Q13133); test: Lxrα luciferase reporter assay in SN4741 neural cells; type: cell-based, mouse; details: 10 μM, 24 h
T2 construct: expressed in transfected cells; host or cells: SN4741 mouse neuronal cell line
T2 sequence (Q13133 1-447): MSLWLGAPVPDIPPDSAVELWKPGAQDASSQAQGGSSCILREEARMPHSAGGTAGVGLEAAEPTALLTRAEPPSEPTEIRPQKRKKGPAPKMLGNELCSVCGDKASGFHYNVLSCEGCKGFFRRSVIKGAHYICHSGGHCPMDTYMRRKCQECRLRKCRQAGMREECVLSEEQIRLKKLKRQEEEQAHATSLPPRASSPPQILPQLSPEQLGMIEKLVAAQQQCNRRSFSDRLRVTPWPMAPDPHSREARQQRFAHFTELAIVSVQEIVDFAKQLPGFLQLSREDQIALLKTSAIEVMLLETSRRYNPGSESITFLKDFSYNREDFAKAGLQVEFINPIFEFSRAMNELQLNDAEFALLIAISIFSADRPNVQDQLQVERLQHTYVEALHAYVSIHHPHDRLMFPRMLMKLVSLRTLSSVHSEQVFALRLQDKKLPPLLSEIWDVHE
Excerpt: as §5

[6] = tested on: Islet1+ oculomotor neurons; test: Islet1+ cells in mouse E11.5 brain primary cultures; type: cell-based; details: for Number of Islet1+ cells / Concentration giving significant difference from vehicle in Islet1+ cells: wild type cultures; for Concentration giving significant difference from vehicle in Islet1+ cells: p<0.05
Protocol: as §2, §3

[7] = molecular target: T3, Lxrβ-LBD (Homo sapiens, UniProt P55055); test: Lanthascreen TR-FRET Lxrβ coactivator assay; type: binding
T3 construct: the Lxrβ-LBD tagged with glutathione-S-transferase (GST); purchased Invitrogen
T3 sequence (P55055 222-460 limits assumed): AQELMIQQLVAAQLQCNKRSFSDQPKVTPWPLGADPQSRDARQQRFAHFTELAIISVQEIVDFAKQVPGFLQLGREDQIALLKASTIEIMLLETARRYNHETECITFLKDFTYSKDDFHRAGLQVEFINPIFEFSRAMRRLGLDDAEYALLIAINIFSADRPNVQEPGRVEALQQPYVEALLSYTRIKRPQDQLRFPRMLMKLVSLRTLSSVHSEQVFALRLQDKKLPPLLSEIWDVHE
Excerpt: Lxrβ Ligand Binding Assay. For Lxrβ ligand binding activity measurement, the applicants used the Lanthascreen™ TR-FRET Lxrβ Coactivator Assay (Invitrogen). The assay uses a terbium (Tb)-labeled anti-GST antibody, a fluorescein-labeled coactivator peptide and the Lxrβ-LBD tagged with glutathione-S-transferase (GST). Binding of the agonist/ligand to Lxrβ-LBD causes a conformational change that result in an increase in the affinity of the Lxrβ for the coactivator peptide. The close proximity of the fluorescently labeled coactivator peptide to the Tb-labeled antibody causes an increase in the TR-FRET signal intensity. The TR-FRET ratio of 520/495 was calculated using a Victor multi label reader with an excitation wavelength of 340 nm and emission wavelengths of 520 nm and 495 nm, The activational capacity of potential ligands was tested in a […] polypropylene plate, following the manufacturer's protocol.

[8] = tested on: TH+ dopamine neurons, GABAergic or red nucleus neurons; Nkx6.1+ cells; test: Other cell types in mouse E11.5 brain primary cultures; type: cell-based; details: data not shown
Protocol: as §2, §3

[9] = tested on: abca1; test: abca1 expression in zebrafish embryos; type: in vivo; details: 10 μM
Protocol: as §4
Zebrafish Strain and Maintenance Zebrafish were raised on a 14/10 h day/night cycle and were kept at 28.5 ° C. Islet-1:GFP transgenic embryos were obtained via natural spawning and staged in hours or days post fertilization (hpf and dpt) according to Kimmel et al). Embryos older than 24 hpf were treated with 0.03% phenylthiourea (PTU) to inhibit pigmentation. […] Immunocytochemistry was performed using an anti-GFP antibody and fluorescence was viewed and photographed using a Zeiss Axioplan compound microscope and a Zeiss Axiocam digital camera.

[10] = tested on: Islet-1; test: Islet-1 expression in Tg[Isl1:GFP] zebrafish embryos; type: in vivo; details: 10 μM
Protocol: as §4, §1

In the case of `CC(CCC[C@@H](C)[C@H]1CC[C@H]2[C@@H]3[C@@H](O)C=C4C[C@@H](O)CC[C@]4(C)[C@H]3CC[C@]12C)C(=O)O` (stereo partly drawn) [3β,7β-diHCA, 3β,7β-dihydroxycholest-5-en-26-oic acid], the “Toxic effect on survival of the fish” value [1] is reported as “had a deleterious toxic effect which impaired the survival of the fish”, the “Surviving cells in cultures” value ([2]; 10 μM) is reported as “no surviving cells were detected” and the “Concentration at which toxicity is initiated” value ([2]; mouse, primary brain cultures from E11.5 mouse embryos, 3 days) is reported as 1 µM. The “Concentration giving significant difference from vehicle in active caspase 3+ cells” value ([2]; p<0.05) was no less than 2 µM, the “Number of active caspase-3+ cells” value [2] was “increased the number of active caspase-3+ cells” and the “Abca1, Abcg1 and Srebf1 transcript levels” value [3] was “induced transcription, but to a lesser extent”. For the same molecule, the “Lxr activational capacity in combination with 22R-HC” value ([4]; 10 μM acid + 10 μM 22R-HC) was “No additive effect was observed”, the “Lxrβ activation, luciferase activity (fold activation)” value [4] was “have the ability to activate both Lxrs” and the “Lxrα activation, luciferase activity (fold activation)” value [5] was “have the ability to activate both Lxrs”. The “Number of Islet1+ cells” value [6] was “caused the loss of Islet1+ cells in the cultures”, the “Concentration giving significant difference from vehicle in Islet1+ cells” value [6] was no less than 2 µM and the “Competition with the effect of 3β,7α-diHCA in TR-FRET” value ([7]; 3β,7α-diHCA at 10 μM plus increasing concentrations of competitor) was “the effect of 3β,7α-diHCA was reduced to that of the latter acids”. The “Competitor concentration giving significant difference from 10 μM 3β,7α-diHCA alone in TR-FRET” value ([7]; p<0.05 vs 10 μM 3β,7α-diHCA) was no less than 2.

For `CC(CCC[C@@H](C)[C@H]1CC[C@H]2[C@@H]3C(=O)C=C4C[C@@H](O)CC[C@]4(C)[C@H]3CC[C@]12C)C(=O)O` (stereo partly drawn) [3βH,7O-CA, 3β-hydroxy-7-oxocholest-5-en-26-oic acid], the “Number of active caspase-3+ cells” value [2] was “did not affect the number of active caspase-3+ cells”, the “Lxrβ activation, luciferase activity (fold activation)” value [4] was “have the ability to activate both Lxrs” and the “Number of other midbrain neurons (TH+ dopamine, GABAergic, red nucleus)” value [8] was “did not affect the number of other midbrain neurons”. The “Lxrα activation, luciferase activity (fold activation)” value [5] was “have the ability to activate both Lxrs”, the “Effect on Islet1+ cells in Lxrα−/−β−/− cultures” value ([6]; cultures from Lxrα−/−β−/− mice) was “eliminated” and the “Number of Islet1+ cells” value [6] was “increased the number of Islet1+ oculomotor cells in the cultures”. The “Concentration giving significant difference from vehicle in Islet1+ cells” value [6] was no less than 10 µM, the “Effect on Islet1+ cells with Lxr antagonist GGPP” value ([6]; wt cultures, 10 μM GGPP) was “blocked by the Lxr antagonist GGPP” and the abca1 expression [9] was “enhanced expression of abca1”. For the same molecule, the “Islet-1 mRNA and protein level (qPCR, western blot)” value [10] was “accompanied by an increase in the level of Islet-1 mRNA and protein”, the Islet-GFP expression ([10]; embryos 48 hpf) was “increased Islet-GFP expression” and the “Number of Islet1+ cells in cranial nerves (III, IV, V, VII, X)” value ([10]; embryos 48 hpf) was “had no significant effect on the number of Islet1+cells”. The “Islet-GFP levels after lxr morpholino injection” value ([10]; lxr MO vs control scrambled MO) was “lxr MO injections abolished the in vivo increase in Islet-GFP levels”.
